The values below come from publication PMC12372887, “Mechanism and cellular actions of the potent AMPK inhibitor BAY-3827” (Science Advances, 2025).

In assay [1] the target is T1, AMPKα2 kinase domain (α2KD), WT (Homo sapiens, UniProt P54646).
T1 construct: human AMPK-α2 KD (α2KD; residues 6 to 280); made in house; host or cells: E. coli BL21(DE3)-RIL
The assay can be described thus: Spectral shift (Dianthus) binding assay. Particulars: read-out: dissociation constant (Kd). As to the method:
(§1) The binding affinity of BAY-3827 to α2KD, AMPK (T172D)-α2KD, or AMPK complexes α2β2γ1 and α2β2γ3 was measured by Dianthus (Nano Temper Technologies). BAY-3827 was diluted from a 100 mM stock in DMSO to 0.5 mM working concentration in the assay buffer (PBS with 0.005% Tween-20) with a final DMSO concentration of 2.5%, which was kept constant throughout the concentration gradient of the compound. For additional experiments, assay buffer containing Hepes 25 mM, NaCl 250 mM, and 0.005% Tween-20 was used to optimize the assay, enhancing signal-to-noise ratios. His-tagged α2KD, T172D-α2KD, or His-tagged AMPK-α2β2γ1 or α2β2γ3 complexes were labeled with His-tag labeling dye (His-Tag Labeling Kit RED-tris-NTA 2nd Generation). The ratio of fluorescence intensities (670/650 nm) over BAY-3827 concentration gradient ranging from 250 μM down to 0.015 μM. The concentration gradient was prepared by 1:1 serial dilution over 16 steps, with a setup of two to three technical replicates for each concentration. The binding experiments were repeated three times, and the mean Kd values of the inhibitor are reported in the appropriate figure alongside ± SEM (micromolar) displaying a representative graph. A concentration of 50 nM of the corresponding protein target was used in each performed assay. The ratio of fluorescence intensities was measured over BAY-3827 concentration gradient in GraphPad Prism using nonlinear regression (one site-total binding). Data quality was assessed by monitoring XYZ scans for each well to detect air bubbles or aggregation where present following the manufacturer’s instructions.
(§2) Data points are plotted as means ± SEM. Data were inputted, and all statistical tests were performed using GraphPad Prism, version 10.1.0. One- or two-way analysis of variance (ANOVA) statistical tests were conducted using Tukey’s correction for multiple comparisons; specific test will be stated in the figure legend. Significance was accepted as P < 0.05. N number and statistical details for each experiment are reported in each figure legend. […] To estimate IC50 values, nonlinear regression fitting was conducted using the model (Inhibitor) versus response—variable slope in GraphPad Prism (version 10.1.0) and estimating values reported in nanomolar. To estimate binding affinities (Kd) from performed spectral shift binding assays, data were fitted using a one-site total model [Y = BmaxX/(Kd + X) + NSX + Background] where X is the ligand concentration, Bmax represents the maximum binding, and NS is the slope of the nonlinear regression of Y/X. Values are reported in means ± SEM in micromolar.

For assay [2], the target named is T2, nonphosphorylated AMPKα2β2γ1 complex (Homo sapiens, UniProt O43741+P54619+P54646).
T2 construct: For expression of full-length AMPKα2β2γ1, α2β2γ2, and α2β2γ3 complexes; made in house; host or cells: E. coli BL21(DE3)-RIL
T2 sequence (P54646 whole entry): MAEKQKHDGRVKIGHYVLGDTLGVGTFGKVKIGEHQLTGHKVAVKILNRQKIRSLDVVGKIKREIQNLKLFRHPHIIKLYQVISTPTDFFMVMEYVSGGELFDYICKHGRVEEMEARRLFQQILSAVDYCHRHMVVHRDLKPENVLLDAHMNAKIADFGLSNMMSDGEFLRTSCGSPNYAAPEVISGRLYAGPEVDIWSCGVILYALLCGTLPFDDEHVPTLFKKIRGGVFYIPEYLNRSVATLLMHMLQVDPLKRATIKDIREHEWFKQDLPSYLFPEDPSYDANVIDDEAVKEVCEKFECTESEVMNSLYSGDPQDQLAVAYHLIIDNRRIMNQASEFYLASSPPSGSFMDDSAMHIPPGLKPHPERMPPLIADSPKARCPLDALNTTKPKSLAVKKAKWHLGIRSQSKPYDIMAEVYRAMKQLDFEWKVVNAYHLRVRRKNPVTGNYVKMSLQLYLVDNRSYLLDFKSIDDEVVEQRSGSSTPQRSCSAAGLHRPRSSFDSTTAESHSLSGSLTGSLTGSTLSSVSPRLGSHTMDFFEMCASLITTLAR
T2 sequence (O43741 whole entry partner): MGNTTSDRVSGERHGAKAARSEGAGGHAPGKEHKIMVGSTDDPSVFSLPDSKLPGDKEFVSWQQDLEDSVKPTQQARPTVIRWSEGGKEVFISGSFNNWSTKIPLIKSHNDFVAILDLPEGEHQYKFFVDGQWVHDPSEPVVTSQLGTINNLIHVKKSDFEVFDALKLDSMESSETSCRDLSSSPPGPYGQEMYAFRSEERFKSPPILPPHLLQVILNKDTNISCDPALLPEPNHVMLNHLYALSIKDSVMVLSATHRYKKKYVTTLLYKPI
T2 sequence (P54619 whole entry partner): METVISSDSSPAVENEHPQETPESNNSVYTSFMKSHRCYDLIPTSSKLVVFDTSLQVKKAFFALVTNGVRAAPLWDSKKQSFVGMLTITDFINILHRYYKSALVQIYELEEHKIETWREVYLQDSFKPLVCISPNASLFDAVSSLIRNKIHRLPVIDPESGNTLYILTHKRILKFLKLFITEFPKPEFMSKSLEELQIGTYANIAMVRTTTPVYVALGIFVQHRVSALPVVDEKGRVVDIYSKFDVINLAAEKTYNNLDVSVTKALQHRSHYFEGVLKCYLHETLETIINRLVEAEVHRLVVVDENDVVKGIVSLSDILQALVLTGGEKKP
Put plainly: Spectral shift (Dianthus) binding assay. The settings on record: read-out: dissociation constant (Kd). As to the method: as §1, §2

Like-named read-outs stand apart in the source and are kept apart here.

T1 sequence (P54646 6-280): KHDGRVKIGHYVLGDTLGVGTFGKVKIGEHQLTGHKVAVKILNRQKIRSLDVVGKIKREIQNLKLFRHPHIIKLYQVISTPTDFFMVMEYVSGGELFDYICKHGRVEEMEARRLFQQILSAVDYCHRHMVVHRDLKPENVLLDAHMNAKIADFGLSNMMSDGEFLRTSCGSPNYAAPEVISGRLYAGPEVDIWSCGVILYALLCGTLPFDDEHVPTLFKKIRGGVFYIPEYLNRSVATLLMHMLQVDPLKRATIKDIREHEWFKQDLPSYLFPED

In general, Kd refers to the equilibrium constant for the complex coming apart. `CCc1ccccc1C(=O)Nc1n[nH]c2c(C)c(F)c(C3C(C#N)=C(C)N(C)C(C)=C3C#N)cc12` [BAY-3827, N-[5-(3,5-dicyano-1,2,6-trimethyl-4H-pyridin-4-yl)-6-fluoro-7-methyl-1H-indazol-3-yl]-2-ethylbenzamide]: the dissociation constant Kd in assay [1] (+3 mM DTT) is 28.6 ± 12.5 µM; in assay [1] (without DTT), 1.23 µM; in assay [2], 11.3 ± 5.23 µM.
